Results reported in BindingDB's records for doi:10.1002/cbic.201100587 (2012).

biological target: Glutamine--fructose-6-phosphate transaminase (isomerizing) (Saccharomyces cerevisiae (strain YJM789), UniProt A6ZZL3); assay: Inhibition Assay
Description: The inhibition assay was followed under standard conditions with saturating concentrations of both substrates to determine the IC50 values.

Sequence of Glutamine--fructose-6-phosphate transaminase (isomerizing) (A6ZZL3 whole entry): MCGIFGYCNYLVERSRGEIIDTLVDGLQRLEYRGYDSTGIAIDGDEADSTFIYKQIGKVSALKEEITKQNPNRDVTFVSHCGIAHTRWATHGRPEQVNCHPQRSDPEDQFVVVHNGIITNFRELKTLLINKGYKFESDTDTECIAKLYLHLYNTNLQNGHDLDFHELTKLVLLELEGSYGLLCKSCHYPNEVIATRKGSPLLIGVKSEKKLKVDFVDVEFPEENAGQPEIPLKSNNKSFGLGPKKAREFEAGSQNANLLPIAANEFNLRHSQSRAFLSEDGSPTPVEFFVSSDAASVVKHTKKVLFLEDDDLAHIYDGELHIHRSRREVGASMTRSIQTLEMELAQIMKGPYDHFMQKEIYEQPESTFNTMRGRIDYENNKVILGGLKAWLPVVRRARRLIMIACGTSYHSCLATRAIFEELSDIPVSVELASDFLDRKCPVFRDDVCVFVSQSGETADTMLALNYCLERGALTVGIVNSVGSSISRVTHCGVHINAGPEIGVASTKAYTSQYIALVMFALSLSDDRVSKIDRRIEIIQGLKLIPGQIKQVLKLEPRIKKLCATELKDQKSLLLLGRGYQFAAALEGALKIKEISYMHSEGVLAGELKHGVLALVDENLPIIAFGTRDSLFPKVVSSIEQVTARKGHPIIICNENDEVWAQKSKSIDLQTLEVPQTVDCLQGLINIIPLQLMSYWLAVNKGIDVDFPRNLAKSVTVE

| IC50 [mM] | Ki [mM] | Compound |
| --- | --- | --- |
| 5.6 | 15.2 | CC(=O)C=CC(=O)NC[C@H](N)C(=O)O [N3-Oxoacyl derivative, 4] |
| 0.27 | 0.0565 | N[C@@H](CNC(=O)/C=C/C(=O)c1ccccc1)C(=O)O [N3-Oxoacyl derivative, 3] |
| 0.66 | 0.45 | N[C@@H](CNC(=O)[C@@H]1O[C@H]1C(=O)c1ccccc1)C(=O)O [N3-Oxoacyl derivative, 1] |
| 7.35 | 19.4 | CC(=O)[C@@H]1O[C@H]1C(=O)NC[C@H](N)C(=O)O [N3-Oxoacyl derivative, 2] |
